Measured values taken from ChEMBL document CHEMBL4715829, “Heterodimeric Rifampicin-Tobramycin conjugates break intrinsic resistance of Pseudomonas aeruginosa to doxycycline and chloramphenicol in vitro and in a Galleria mellonella in vivo model” (Eur J Med Chem, 2019).

Tests used:
Pseudomonas aeruginosa [1] = assay: Antibacterial activity against Pseudomonas aeruginosa PAO1 assessed as fractional inhibitory concentration index in presence of Erythromycin incubated for 18 hrs by broth microdilution assay based checkerboard assay; assay type: functional
Klebsiella pneumoniae = assay: Antibacterial activity against Klebsiella pneumoniae ATCC 13883 assessed as reduction in bacterial growth incubated for 18 hrs by broth microdilution assay; assay type: functional
Pseudomonas aeruginosa [2] = assay: Antibacterial activity against Pseudomonas aeruginosa 750 harboring efflux mutant assessed as reduction in bacterial growth incubated for 18 hrs by broth microdilution assay; assay type: functional
Pseudomonas aeruginosa [3] = assay: Antibacterial activity against gentamicin, tobramycin-resistant Pseudomonas aeruginosa CANWARD 96846 assessed as reduction in bacterial growth incubated for 18 hrs by broth microdilution assay; assay type: functional
Pseudomonas aeruginosa [4] = assay: Antibacterial activity against Pseudomonas aeruginosa 264-101354 assessed as reduction in bacterial growth incubated for 18 hrs by broth microdilution assay; assay type: functional
Pseudomonas aeruginosa [5] = assay: Antibacterial activity against Pseudomonas aeruginosa 262-101856 assessed as fractional inhibitory concentration index in presence of doxycycline incubated for 18 hrs by broth microdilution assay; assay type: functional
Pseudomonas aeruginosa [6] = assay: Antibacterial activity against Pseudomonas aeruginosa 259-96918 assessed as fractional inhibitory concentration index in presence of chloramphenicol incubated for 18 hrs by broth microdilution assay; assay type: functional
Pseudomonas aeruginosa [7] = assay: Antibacterial activity against Pseudomonas aeruginosa 259-96918 assessed as fractional inhibitory concentration index in presence of doxycycline incubated for 18 hrs by broth microdilution assay; assay type: functional
Pseudomonas aeruginosa [8] = assay: Antibacterial activity against Pseudomonas aeruginosa PAO1 assessed as fractional inhibitory concentration index in presence of Doxycycline incubated for 18 hrs by broth microdilution assay based checkerboard assay; assay type: functional
Pseudomonas aeruginosa [9] = assay: Antibacterial activity against Pseudomonas aeruginosa PAO1 assessed as reduction in bacterial growth by measuring rifampicin MIC at <=[…] uM in presence of rifampicin incubated for 18 hrs by broth microdilution assay based checkerboard assay (reference value: […] microg/ml); assay type: functional; settings: dose microM <=10
Pseudomonas aeruginosa [10] = assay: Antibacterial activity against Pseudomonas aeruginosa 101243 assessed as fractional inhibitory concentration index in presence of chloramphenicol incubated for 18 hrs by broth microdilution assay; assay type: functional
[11] = system: Staphylococcus epidermidis; assay: Antibacterial activity against methicillin-resistance Staphylococcus epidermidis CAN-ICU 61589 (CAZ>32) assessed as reduction in bacterial growth incubated for 18 hrs by broth microdilution assay; assay type: functional
Pseudomonas aeruginosa [12] = assay: Antibacterial activity against Pseudomonas aeruginosa PAO1 assessed as fractional inhibitory concentration index in presence of Tigecycline incubated for 18 hrs by broth microdilution assay based checkerboard assay; assay type: functional
Pseudomonas aeruginosa [13] = assay: Antibacterial activity against Pseudomonas aeruginosa 264-101354 assessed as fractional inhibitory concentration index in presence of doxycycline incubated for 18 hrs by broth microdilution assay; assay type: functional
Escherichia coli [14] = assay: Antibacterial activity against gentamicin-resistant Escherichia coli CAN-ICU 61714 assessed as reduction in bacterial growth incubated for 18 hrs by broth microdilution assay; assay type: functional
[15] = Cytotoxicity against human HepG2 cells assessed as cell viability at <10 uM incubated for 48 hrs prestoblue assay; assay type: cell-based; settings: read-out: Activity
Escherichia coli [16] = assay: Antibacterial activity against Escherichia coli ATCC 25922 assessed as reduction in bacterial growth incubated for 18 hrs by broth microdilution assay; assay type: functional
Escherichia coli [17] = assay: Antibacterial activity against Escherichia coli CAN-ICU 63074 (AMK 32) assessed as reduction in bacterial growth incubated for 18 hrs by broth microdilution assay; assay type: functional
[18] = Cytotoxicity against human HepG2 cells assessed as cell viability at 50 uM incubated for 48 hrs by prestoblue assay; assay type: cell-based; settings: read-out: Activity
Pseudomonas aeruginosa [19] = assay: Antibacterial activity against Pseudomonas aeruginosa PAO1 assessed as reduction in bacterial growth by measuring minocycline MIC at <=10 uM in presence of minocycline incubated for 18 hrs by broth microdilution assay based checkerboard assay (reference value: 8 microg/ml); assay type: functional; settings: dose microM <=10
[20] = Cytotoxicity against human HEK293 cells assessed as cell viability at 50 uM incubated for 48 hrs by prestoblue assay; assay type: cell-based; settings: read-out: Activity
Pseudomonas aeruginosa [21] = assay: Antibacterial activity against Pseudomonas aeruginosa 262-101856 assessed as fractional inhibitory concentration index in presence of chloramphenicol incubated for 18 hrs by broth microdilution assay; assay type: functional
Pseudomonas aeruginosa [22] = assay: Antibacterial activity against Pseudomonas aeruginosa PAO1 assessed as fractional inhibitory concentration index in presence of Nitrofurantoin incubated for 18 hrs by broth microdilution assay based checkerboard assay; assay type: functional
Pseudomonas aeruginosa [23] = assay: Antibacterial activity against Pseudomonas aeruginosa 101243 assessed as reduction in bacterial growth incubated for 18 hrs by broth microdilution assay; assay type: functional
Pseudomonas aeruginosa [24] = assay: Antibacterial activity against Pseudomonas aeruginosa PAO1 assessed as fractional inhibitory concentration index in presence of Aztreonam incubated for 18 hrs by broth microdilution assay based checkerboard assay; assay type: functional
Pseudomonas aeruginosa [25] = assay: Antibacterial activity against Pseudomonas aeruginosa PAO1 assessed as fractional inhibitory concentration index in presence of Vancomycin incubated for 18 hrs by broth microdilution assay based checkerboard assay; assay type: functional
Pseudomonas aeruginosa [26] = assay: Antibacterial activity against Pseudomonas aeruginosa ATCC 27853 assessed as reduction in bacterial growth incubated for 18 hrs by broth microdilution assay; assay type: functional
Pseudomonas aeruginosa [27] = assay: Antibacterial activity against Pseudomonas aeruginosa PAO1 assessed as reduction in bacterial growth by measuring ceftazidime MIC at <=10 uM in presence of ceftazidime incubated for 18 hrs by broth microdilution assay based checkerboard assay (reference value: 2 microg/ml); assay type: functional; settings: dose microM <=10
Pseudomonas aeruginosa [28] = assay: Antibacterial activity against Pseudomonas aeruginosa PAO1 assessed as fractional inhibitory concentration index in presence of Fosfomycin incubated for 18 hrs by broth microdilution assay based checkerboard assay; assay type: functional
Pseudomonas aeruginosa [29] = assay: Antibacterial activity against Pseudomonas aeruginosa PAO1 assessed as reduction in bacterial growth by measuring fosfomycin MIC at <=[…] uM in presence of fosfomycin incubated for 18 hrs by broth microdilution assay based checkerboard assay (reference value: […] microg/ml); assay type: functional; settings: dose microM <=10
Pseudomonas aeruginosa [30] = assay: Antibacterial activity against Pseudomonas aeruginosa 260-97103 assessed as fractional inhibitory concentration index in presence of chloramphenicol incubated for 18 hrs by broth microdilution assay; assay type: functional
Pseudomonas aeruginosa [31] = assay: Antibacterial activity against Pseudomonas aeruginosa PAO1 assessed as fractional inhibitory concentration index in presence of Cefotaxime incubated for 18 hrs by broth microdilution assay based checkerboard assay; assay type: functional
Pseudomonas aeruginosa [32] = assay: Antibacterial activity against Pseudomonas aeruginosa 262-101856 assessed as reduction in bacterial growth incubated for 18 hrs by broth microdilution assay; assay type: functional
Pseudomonas aeruginosa [33] = assay: Antibacterial activity against Pseudomonas aeruginosa 114228 assessed as reduction in bacterial growth incubated for 18 hrs by broth microdilution assay; assay type: functional
Pseudomonas aeruginosa [34] = assay: Antibacterial activity against wild type Pseudomonas aeruginosa PAO1 assessed as reduction in bacterial growth incubated for 18 hrs by broth microdilution assay; assay type: functional
Pseudomonas aeruginosa [35] = assay: Antibacterial activity against Pseudomonas aeruginosa PAO1 assessed as reduction in bacterial growth by measuring meropenem MIC at <=10 uM in presence of meropenem incubated for 18 hrs by broth microdilution assay based checkerboard assay (reference value: 1 microg/ml); assay type: functional; settings: dose microM <=10
Pseudomonas aeruginosa [36] = assay: Antibacterial activity against Pseudomonas aeruginosa PAO1 assessed as reduction in bacterial growth by measuring nitrofurantoin MIC at <=10 uM in presence of nitrofurantoin incubated for 18 hrs by broth microdilution assay based checkerboard assay (reference value: 512 microg/ml); assay type: functional; settings: dose microM <=10
Pseudomonas aeruginosa [37] = assay: Antibacterial activity against Pseudomonas aeruginosa PAO1 assessed as fractional inhibitory concentration index in presence of Ceftazidime incubated for 18 hrs by broth microdilution assay based checkerboard assay; assay type: functional

In the case of CO[C@H]1/C=C/O[C@@]2(C)Oc3c(C)c(O)c4c(O)c(c(/C=N/N5CCN(Cc6cn(CCCCCCCCCCCCO[C@@H]7[C@@H](O[C@H]8O[C@H](CO)[C@@H](O)[C@H](N)[C@H]8O)[C@H](N)C[C@H](N)[C@H]7O[C@H]7O[C@H](CN)[C@@H](O)C[C@H]7N)nn6)CC5)c(O)c4c3C2=O)NC(=O)/C(C)=C\C=C\[C@H](C)[C@H](O)[C@@H](C)[C@@H](O)[C@@H](C)[C@H](OC(C)=O)[C@@H]1C.O=C(O)C(F)(F)F.O=C(O)C(F)(F)F.O=C(O)C(F)(F)F.O=C(O)C(F)(F)F.O=C(O)C(F)(F)F, the “fractional inhibitory concentration index (FICI)” value (Pseudomonas aeruginosa [1]) is reported as 0.06, the MIC (Klebsiella pneumoniae) is reported as > 32 mg/L and the MIC (Pseudomonas aeruginosa [2]) is reported as 128 mg/L. For the same compound, the MIC (Pseudomonas aeruginosa [3]) was > 32 mg/L, the MIC (Pseudomonas aeruginosa [4]) was 256 mg/L and the “fractional inhibitory concentration index (FICI)” value (Pseudomonas aeruginosa [5]) was <0.07. For the same compound, the “fractional inhibitory concentration index (FICI)” value (Pseudomonas aeruginosa [6]) was <0.625, the “fractional inhibitory concentration index (FICI)” value (Pseudomonas aeruginosa [7]) was <0.133 and the “fractional inhibitory concentration index (FICI)” value (Pseudomonas aeruginosa [8]) was 0.09. The MIC (Pseudomonas aeruginosa [9]) was 2 mg/L, the “fractional inhibitory concentration index (FICI)” value (Pseudomonas aeruginosa [10]) was 0.125 and the MIC [11] was 8 mg/L. The “fractional inhibitory concentration index (FICI)” value (Pseudomonas aeruginosa [12]) was 0.51, the “fractional inhibitory concentration index (FICI)” value (Pseudomonas aeruginosa [13]) was 0.078 and the MIC (Escherichia coli [14]) was > 32 mg/L. The viability at 48 h [15] was > 90%, the MIC (Escherichia coli [16]) was 16 mg/L and the MIC (Escherichia coli [17]) was 32 mg/L. The viability at 48 h, 50 µM [18] was > 70%, the MIC (Pseudomonas aeruginosa [19]) was 2 mg/L and the viability at 48 h, 50 µM [20] was > 70%. The “fractional inhibitory concentration index (FICI)” value (Pseudomonas aeruginosa [21]) was <0.125, the “fractional inhibitory concentration index (FICI)” value (Pseudomonas aeruginosa [22]) was 0.53 and the MIC (Pseudomonas aeruginosa [23]) was 256 mg/L. The “fractional inhibitory concentration index (FICI)” value (Pseudomonas aeruginosa [24]) was 1.03, the “fractional inhibitory concentration index (FICI)” value (Pseudomonas aeruginosa [25]) was 0.53 and the MIC (Pseudomonas aeruginosa [26]) was > 32 mg/L. The MIC (Pseudomonas aeruginosa [27]) was 2 mg/L, the “fractional inhibitory concentration index (FICI)” value (Pseudomonas aeruginosa [28]) was 0.28 and the MIC (Pseudomonas aeruginosa [29]) was 4 mg/L. The “fractional inhibitory concentration index (FICI)” value (Pseudomonas aeruginosa [30]) was <0.129, the “fractional inhibitory concentration index (FICI)” value (Pseudomonas aeruginosa [31]) was 1.03 and the MIC (Pseudomonas aeruginosa [32]) was > 256 mg/L. For the same compound, the MIC (Pseudomonas aeruginosa [33]) was > 128 mg/L, the MIC (Pseudomonas aeruginosa [34]) was 512 mg/L and the MIC (Pseudomonas aeruginosa [35]) was 1 mg/L. The MIC (Pseudomonas aeruginosa [36]) was 256 mg/L and the “fractional inhibitory concentration index (FICI)” value (Pseudomonas aeruginosa [37]) was 1.03.
